Data taken from PubChem BioAssay (NCI).
Where “and” joins values, the source holds several entries; their conditions need not be identical. Equal values may be shown once.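 Following 48 hours of exposure in 96-well plates, responses at five concentrations were used to interpolate endpoints linearly. The concentration for 50% growth inhibition is given as GI50. TGI marks complete inhibition of growth.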

How the values were obtained:
Experiment in all cases: NCI tumour cell line growth inhibition, 48 h
[1] = test system: HOP-62 NSCLC
[2] = test system: HT29 colon
[3] = test system: NCI-H460 lung
[4] = test system: NCI-H226 lung
[5] = test system: UACC-62 melanoma
[6] = test system: K-562 leukemia
[7] = test system: DU-145 prostate
[8] = test system: A549 NSCLC
[9] = test system: MCF7 breast
[10] = test system: SK-MEL-5 melanoma

SMILES | GI50 [1] | TGI [1] [µM] | GI50 [2] [µM] | TGI [2] [µM] | GI50 [3] | TGI [3] [µM] | GI50 [4] | TGI [4] | GI50 [5] [µM] | TGI [5] [µM] | GI50 [6] [µM] | TGI [6] [µM] | GI50 [7] [µM] | TGI [7] [µM] | GI50 [8] [µM] | TGI [8] [µM] | GI50 [9] [µM] | TGI [9] [µM] | GI50 [10] | TGI [10]
CCCCCCCCOc1ccc(/C=N/Nc2cc(C)nc3ccc(Cl)cc23)cc1 | 1.48 µM | 3.09 | 1.81 | 3.34 | 2.01 µM | 3.87 | 1.7 µM | 3.62 µM | 1.87 | 3.49 | 1.66 | 4.24 | 1.76 | 3.32 | 1.7 | 3.52 | 1.94 | 3.91 | 1.73 µM | 3.16 µM
Nc1c(C(=O)c2cccc(OCCN3CCOCC3)c2)cnn1-c1ccc(F)cc1 | > 25 µM | > 25 | > 25 | > 25 | > 25 µM | > 25 | > 25 µM | > 25 µM | > 25 | > 25 | > 25 | > 25 | > 25 | > 25 | > 25 | > 25 | > 25 | > 25 | > 25 µM | > 25 µM
CC[N+](CC)=c1ccc2nc3c(cc(NCc4ccccc4)c4ccccc43)oc-2c1 | 0.512 µM | 1.86 | 0.189 | 0.773 | 0.201 µM | 0.435 | 0.358 µM | 1.83 µM | 0.944 | 2.52 | 0.121 | 0.724 | 0.155 | 0.291 | 0.215 | 0.56 | 0.165 | 0.474 | 0.147 µM | 0.28 µM
O=C1c2ccccc2S(=O)(=O)N1CSC(=S)N1CCCC1 | > 100 µM | > 100 | > 100 | > 100 | 45.4 µM | > 100 | > 100 µM | > 100 µM | > 75.7 | > 100 | 4.02 | > 100 | > 100 | > 100 | > 88.5 | > 100 | > 22.9 | > 100 | > 27.6 µM | > 100 µM
COc1cc(-c2oc3c(OC)c(OC)cc(O)c3c(=O)c2OC)ccc1O | 4.01 µM and 14.7 µM | > 100 | – | > 100 | 4 µM and 8.51 µM | > 100 | 3.88 µM and 12.4 µM | 9.68 µM and > 50 µM | – | > 100 | – | > 50 | – | > 50 | – | > 50 | – | > 50 | 2.37 µM and 9.11 µM | > 100 µM and 37.7 µM
